One assay concerns the target T1, CCR2 chemokine receptor (Homo sapiens, UniProt P41597).
T1 construct: endogenous in cells; host or cells: THP-1
Conditions: cited from earlier work.

In assay [1] the test system is non-polarized macrophages. Nature of the assay: Macrophage polarization by qPCR, MYC-HCC conditioned medium with recombinant cytokines. Format: cell-based, mouse. Conditions: recombinant cytokine added to cultured MYC-HCC cells. The protocol: FIG. 11. a. Quantification of migration of macrophages treated with MYC- or MYC/Twist1 -cells conditioned media. b. Expression of M1 marker genes in macrophages treated with conditioned media from MYC-HCC or MYC/Twist1-HCC. c. Spheroid co-culture assay of MYC/Twist1 -cells and macrophages after treatment with either CCL2 antibody or control antibody. F4/80 staining was performed to quantify number of spheroids with macrophage infiltration (*p<0.05). d. Experimental scheme- Conditioned medium of MYC-HCC cells treated with PBS or recombinant IL13 or CCL2 respectively was added to non-polarized macrophages for 48 hours. Macrophage polarization was assessed by qPCR for M2 markers (ARG1, […]) and M1 markers (IFNAR2, CCR2) (**p<0.005).
Quantitative Real-Time PCR: RNA was isolated using RNeasy plus mini kit according to the manufacturer’s instructions (Qiagen). cDNA was synthesized using SuperScript III (ThermoFisher). qPCR was performed using specific primers (Supplemental Table 1) and SYBR Green (Roche) in an Applied Biosystems Real Time PCR System (Life Technologies). Data were normalized to UBC. A minimum of 3 biological and 3 technical replicates were used for all qPCR experiments.
(In general: Quantitative PCR measures a nucleic acid by following its amplification.)

The next assay relates to MYC-HCC. The assay can be described thus: Orthotopic MYC-HCC transplant in NSG mice treated with recombinant cytokines. The assay is classed as in vivo, mouse. Particulars: for macrophage infiltration increase: IHC staining for F4/80; for metastases (FC): single cytokine vs control, 4 weeks. On the procedure: FIG. 5 Both CCL2 and IL13 are required to promote Twist1-driven metastasis. a. Experimental scheme- Mice orthotopically transplanted with MYC-HCC cells were treated either with PBS or IL13 or CCL2 or CCL2+IL13 recombinant cytokines for 4 weeks. b. Representative histopathology of lung sections from MYC-HCC bearing mice treated with PBS or CCL2+IL13. c. Histopathology of liver ([…]) of MYC-HCC bearing mice treated with PBS or CCL2 or IL13 or CCL2+IL13 and IHC for F4/80 and MYC expression in each group. d. Quantification of number of metastatic nodules in the liver control treated or recombinant cytokine treated MYC-HCC bearing mice. (**p<0.01). e. Quantification of macrophage infiltration in liver by IHC staining for F4/80 of MYC-HCC bearing mice liver treated with PBS or CCL2 or IL13 or CCL2+IL13. f. Histopathology of lung (1X and 20X) of MYC-HCC bearing mice treated with PBS or CCL2 or IL13 or CCL2+IL13 and IHC for F4/80 and MYC expression in each group. g. Quantification of number of metastatic nodules in the lung of control treated or recombinant cytokine treated MYC-HCC bearing mice. (**p<0.01). h. Quantification of macrophage infiltration in lung by IHC staining for F4/80 of MYC-HCC bearing mice liver treated with PBS or CCL2 or IL13 or CCL2+IL13.
Orthotopic transplantation assay: An orthotopic mouse model was established by transplanting mouse MYC- or MYC/Twist1-HCC tumors (1 mm^3) under the liver capsule of NOD/Scid/Gamma (NSG) recipient mice. Bioluminescent (BLI) and MRI scans monitoring are used to monitor tumor engraftment and growth. Mice are euthanized once predetermined specific endpoints are met or based on morbidity whichever occurs first.
in vivo treatment mouse models: For antibody treatment, mice were injected i.p. with isotype control IgG or anti-CCL2 (BioXcell), -IL13 and -IL4 (Genentech) antibody (10 mg/kg body weight three times per week). For recombinant cytokines treatment, mice were injected i.p. three times per week with PBS or CCL2 (Peprotech, 500 ng/mouse), IL13 and IL4 (Peprotech, 250 ng/mouse). For clodronate liposomes (CL) treatment, CL or control liposomes were administered i.p. at 6.5 µl/g body weight 3 times per week to NSGs mice. CL and control treatments were administered to NSG mice previously injected i.v. with 0.5×10^6 MYC/twist1-HCC cells or orthotopically transplanted with MYC/Twist1-HCC tumors. Experimental and control mice were killed 4 weeks after tumor were transplanted. Primary tumors and lung metastases were collected for H&E staining and IHC.

T1 sequence (P41597 whole entry): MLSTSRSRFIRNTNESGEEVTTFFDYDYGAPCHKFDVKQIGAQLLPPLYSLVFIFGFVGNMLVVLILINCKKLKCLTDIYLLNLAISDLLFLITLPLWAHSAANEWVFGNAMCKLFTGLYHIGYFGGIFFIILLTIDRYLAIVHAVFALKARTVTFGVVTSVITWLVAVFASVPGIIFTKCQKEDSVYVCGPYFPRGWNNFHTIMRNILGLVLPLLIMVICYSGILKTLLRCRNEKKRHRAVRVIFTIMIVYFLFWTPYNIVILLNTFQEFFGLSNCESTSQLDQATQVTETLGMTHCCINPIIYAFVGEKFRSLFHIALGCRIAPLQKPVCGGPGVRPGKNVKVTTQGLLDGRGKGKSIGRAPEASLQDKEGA

Usually IC50 stands for the midpoint of a concentration-inhibition curve. For the molecule `CC(C)(C)N1CCN[C@@H](C(=O)N2CCN(C(=O)Nc3ccc(Cl)c(F)c3)CC2)C1` [AZD2423], the IC50 at CCR2 chemokine receptor (THP-1 cell line, pre-clinical studies, read-out: IC50, inhibition of MCP-1 induced calcium mobilization and chemotaxis) is 4 nM. On CCR2 chemokine receptor, the “selectivity for CCR2” value is given as greater than 500 fold.

For “CCL2: recombinant cytokine CCL2 (Peprotech)”, the M2 marker expression entry in assay [1] is given as “not”. Moreover, in the assay with MYC-HCC, the macrophage infiltration increase is on record as 1.8 fold and the “metastases (FC)” value is 3 FC.

“IL13: recombinant cytokine IL13 (Peprotech)”: the M2 marker expression entry in assay [1] was “increased M2 marker expression”. Besides, in the assay with MYC-HCC, the macrophage infiltration increase result is “did not increase macrophage infiltration” and the “metastases (FC)” value amounted to 1 FC.

B1: recombinant IL4: recombinant cytokine IL4 (Peprotech), control (protein, UniProt P05112 25-153, looked up)
Interleukin-4: HKCDITLQEIIKTLNSLTEQKTLCTELTVTDIFAASKNTTEKETFCRAATVLRQFYSHHEKDTRCLGATAQQFHRHKQLIRFLKRLDRNLWGLAGLNSCPVKEANQSTLENFLERLKTIMREKYSKCSS
Consider B1, for which, in the assay on MYC-HCC, the macrophage infiltration increase entry is “did not elicit macrophage recruitment”. Further, the “effect on metastasis” value in the assay with MYC-HCC (mouse, in vivo) is given as “did not elicit macrophage recruitment or increase metastasis”.

Values taken from patent US20230109697A1, “COMBINED ANTI-CYTOKINE THERAPY TO REDUCE METASTATIC CANCER” (The Board of Trustees of the Leland Stanford Junior …, priority 2020, published 2023).
